Laboratory results published in US12358983B2, “Combination of anti CD19 antibody with a BCL-2 inhibitor and uses thereof” (Incyte Corporation, priority 2016, dated 2025).

System: MEC-1 cells
Test: Cytotoxicity (ADCC assay with NK effector cells) of MOR00208 and venetoclax alone and in combination in MEC-1 cells
Type: cell-based
Text: Cell lines tested: MEC-1 cells (DSMZ# ACC497). Culture conditions of cell lines used are according to supplier's information. Cell Medium: lscove's Modified Dulbecco's Medium (IMDM), Invitrogen, Cat No.: 31980; RPMI1640, Invitrogen, Cat No.: 31870; GlutaMAX, Invitrogen, CAT No.: 35050; FCS: Sigma CAT No.: F7524 LOT No.: 111M3396. NKs: RPMI1640, with GlutaMAX, Invitrogen, Cat No.: 31870, 10% FCS; Biocoll: Biochrome AG CAT No.: L6115 LOT No.: 0034D; MACS NK cell isolation kit: Miltenyi Biotec CAT No.: 130-092-657 LOT No.: 5150402327; venetoclax: Selleck Chem. CAT No.: S8048 LOT No.: S804803; FCS: Sigma CAT No.: F7524 LOT No.: 111M3396; and RefmAb33 (anti-RSV) with same Fc region as MOR00208.
The cytotoxic potential of MOR00208 and venetoclax alone and in combination were tested in the MEC-1 cell line (CLL). Target cell killing is measured using the following parameters: venetoclax mono treatment at concentrations of 3 μM, 6.5 μM, and 10 μM; MOR00208 mono treatment at concentrations of 0.01 pM, 0.1 pM, 1 pM, 10 pM, 100 pM and 10 nM, and the combination treatment of the listed venetoclax and MOR00208 concentrations. The following are used as controls: RefnnAb33, NK cells alone, MEC-1 cells alone or DMSO. In the venetoclax mono groups as well as in the MOR00208+venetoclax combination groups, target cells were pretreated with venetoclax or with DMSO control for 24 hours followed by removal of the dead cells prior to the ADCC assay. A dead cell removal kit was used to remove cells killed by the cytotoxic effect of venetoclax. The dead cell removal kit was implemented to mimick the removal of dead cells that also occurs in vivo and to prevent false negative interference of the dead cells with the subsequent ADCC assay. For the ADCC assay, target cells are counted and stained using CFSE at a final concentration of 1 μg/mL. For the control group, i.e. DMSO treated target cells, the effector: target (E:T) cell ratio was adjusted to 2:1, i.e. 1×10E6/nnL effector cells (NK cells) and 5×10E5/mL target cells (MEC-1 cells). […] The ADCC assays were performed as follows: using 96 well plates, 100 μL of MEC-1 target cell suspension was added per well, followed by 100 μL NK effector cell suspension per well. Mixed cell suspensions were centrifuged and resuspended in 100 μL antibody containing medium or the according control solution. The antibodies were diluted in a range of 10 nM-0.01 pM (corresponds to 1.5 μg/mL-1.5 pg/mL) in medium. The ADCC assays were incubated for 2 hours in a CO2-incubator at 37° C. After 10 minutes incubation on ice, 50 μL DAPI solution was added to each well (final concentration 1 μg/mL) and incubated for additional 10 minutes on ice. The ADCC measurements were performed on a BD FACSVerse instrument. Dead target cells were identified as DAPI positive cells.
Combination Index (CI) calculations are completed in order to determine synergy of the combination of the exemplified anti-CD19 antibody and venetoclax as compared to MOR00208 and venetoclax alone. Such calculations are described in Ting-Chao Chou, Theoretical Basis, Experimental Design, and Computerized Simulation of Synergism and Antagonism in Drug Combination Studies, Pharmacol Rev 58:621-681 (2006), which is incorporated by reference in its entirety and Chou TC, Talalay P, Quantitative analysis of dose-effect relationships: the combined effects of multiple drugs or enzyme inhibitors. Adv Enzyme Regul 22: 27-55 (1984), which is incorporated by reference in its entirety. The methods of Chou-Talalay are carried out using the CI-isobol method.
The median-effect equation models the effect of an inhibitor (such as a drug) as Fa/Fu=(D/D50)^m, where D is the dose, Fa and Fu is the fraction of the system affected and unaffected by the dose D (Fa+Fu=1); D50 is the dose producing the median effect (e.g. IC50, ED50, LD50). The constant m determines the shape of the dose-effect curve.

## MOR00208: anti-CD19 antibody; heavy chain SEQ ID NO: 14, light chain SEQ ID NO: 15
Exp 1, MOR00208 1.50E+00 μg/mL
  Actual MOR00208 Effect: 69.4 % dead cells
Exp 1, MOR00208 1.50E−02 μg/mL
  Actual MOR00208 Effect: 66.8 % dead cells
Exp 1, MOR00208 1.50E−03 μg/mL
  Actual MOR00208 Effect: 43.4 % dead cells
Exp 1, MOR00208 1.50E−04 μg/mL
  Actual MOR00208 Effect: 22.8 % dead cells
Exp 1, MOR00208 1.50E−05 μg/mL
  Actual MOR00208 Effect: 17.4 % dead cells
Exp 1, MOR00208 1.50E−06 μg/mL
  Actual MOR00208 Effect: 15.3 % dead cells
Exp 1, same effect as MOR00208 1.50E+00 μg/mL + venetoclax 3.0 μM
  Theoretical MOR00208 Dose: * 1.00E+03^ μg/mL
Exp 1, same effect as MOR00208 1.50E+00 μg/mL + venetoclax 6.5 μM
  Theoretical MOR00208 Dose: * 1.00E+03^ μg/mL
Exp 1, same effect as MOR00208 1.50E+00 μg/mL + venetoclax 10.0 μM
  Theoretical MOR00208 Dose: * 1.00E+03^ μg/mL
Exp 1, same effect as MOR00208 1.50E−02 μg/mL + venetoclax 3.0 μM
  Theoretical MOR00208 Dose: 0.0304 µg/mL
Exp 1, same effect as MOR00208 1.50E−02 μg/mL + venetoclax 6.5 μM
  Theoretical MOR00208 Dose: * 1.00E+03^ μg/mL
Exp 1, same effect as MOR00208 1.50E−02 μg/mL + venetoclax 10.0 μM
  Theoretical MOR00208 Dose: * 1.00E+03^ μg/mL
Exp 1, same effect as MOR00208 1.50E−03 μg/mL + venetoclax 3.0 μM
  Theoretical MOR00208 Dose: 0.00125 µg/mL
Exp 1, same effect as MOR00208 1.50E−03 μg/mL + venetoclax 6.5 μM
  Theoretical MOR00208 Dose: 0.00404 µg/mL
Exp 1, same effect as MOR00208 1.50E−03 μg/mL + venetoclax 10.0 μM
  Theoretical MOR00208 Dose: 0.00914 µg/mL
Exp 1, same effect as MOR00208 1.50E−04 μg/mL + venetoclax 3.0 μM
  Theoretical MOR00208 Dose: 0.000132 µg/mL
Exp 1, same effect as MOR00208 1.50E−04 μg/mL + venetoclax 6.5 μM
  Theoretical MOR00208 Dose: 0.00041 µg/mL
Exp 1, same effect as MOR00208 1.50E−04 μg/mL + venetoclax 10.0 μM
  Theoretical MOR00208 Dose: 0.000543 µg/mL
Exp 1, same effect as MOR00208 1.50E−05 μg/mL + venetoclax 3.0 μM
  Theoretical MOR00208 Dose: 1.41e-05 µg/mL
Exp 1, same effect as MOR00208 1.50E−05 μg/mL + venetoclax 6.5 μM
  Theoretical MOR00208 Dose: 8.47e-05 µg/mL
Exp 1, same effect as MOR00208 1.50E−05 μg/mL + venetoclax 10.0 μM
  Theoretical MOR00208 Dose: 0.000163 µg/mL
Exp 1, same effect as MOR00208 1.50E−06 μg/mL + venetoclax 10.0 μM
  Theoretical MOR00208 Dose: 2.33e-05 µg/mL
Exp 2, MOR00208 1.50E+00 μg/mL
  Actual MOR00208 Effect: 74.8 % dead cells
Exp 2, MOR00208 1.50E−02 μg/mL
  Actual MOR00208 Effect: 69.6 % dead cells
Exp 2, MOR00208 1.50E−03 μg/mL
  Actual MOR00208 Effect: 55.9 % dead cells
Exp 2, MOR00208 1.50E−04 μg/mL
  Actual MOR00208 Effect: 40.3 % dead cells
Exp 2, MOR00208 1.50E−05 μg/mL
  Actual MOR00208 Effect: 34.5 % dead cells
Exp 2, MOR00208 1.50E−06 μg/mL
  Actual MOR00208 Effect: 29.7 % dead cells
Exp 2, same effect as MOR00208 1.50E+00 μg/mL + venetoclax 3.0 μM
  Theoretical MOR00208 Dose: * 1.00E+03^ μg/mL
Exp 2, same effect as MOR00208 1.50E+00 μg/mL + venetoclax 6.5 μM
  Theoretical MOR00208 Dose: * 1.00E+03^ μg/mL
Exp 2, same effect as MOR00208 1.50E+00 μg/mL + venetoclax 10.0 μM
  Theoretical MOR00208 Dose: * 1.00E+03^ μg/mL
Exp 2, same effect as MOR00208 1.50E−02 μg/mL + venetoclax 3.0 μM
  Theoretical MOR00208 Dose: * 1.00E+03^ μg/mL
Exp 2, same effect as MOR00208 1.50E−02 μg/mL + venetoclax 6.5 μM
  Theoretical MOR00208 Dose: * 1.00E+03^ μg/mL
Exp 2, same effect as MOR00208 1.50E−02 μg/mL + venetoclax 10.0 μM
  Theoretical MOR00208 Dose: * 1.00E+03^ μg/mL
Exp 2, same effect as MOR00208 1.50E−03 μg/mL + venetoclax 3.0 μM
  Theoretical MOR00208 Dose: 0.00188 µg/mL
Exp 2, same effect as MOR00208 1.50E−03 μg/mL + venetoclax 6.5 μM
  Theoretical MOR00208 Dose: 0.01 µg/mL
